The values below come from ChEMBL document CHEMBL1201862, “PubChem BioAssay data set” (2004).

In general, EC50 refers to the concentration giving half of the maximal effect. By IC50 is commonly meant the midpoint of a concentration-inhibition curve. One may read the AC50 as the concentration at which the activity in the assay is half-maximal.

Activity calls are given as the source filed them.

Data set [1] can be described thus: Luminescence Cell-Based Dose Confirmation HTS to Identify Activators of 5'UTR Stem-Loop Driven Alpha-Synuclein mRNA Translation in H4 Neuroglioblastoma Cells. [Related pubchem assays: 1829 (Project Summary), 1814 (Primary HTS)]. In kind it is functional.
Data set [2] relates to H4. The experiment in a line: Luminescence Cell-Based Dose Response HTS to Identify Activators of 5'UTR Stem-Loop Driven Prion Protein mRNA Translation in H4 Neuroglioblastoma Cells. [Related pubchem assays: 1829 (Project Summary), 1814 (Primary HTS)]. In kind it is functional. The following applies: Homo sapiens.
Data set [3] can be described thus: Luminescence Cell-Based Dose Response HTS to Identify Activators of Luciferase Translation or Activity in H4 […] Cells. [Related pubchem assays: 1829 (Project Summary), 1814 (Primary HTS)]. In kind it is functional.
Data set [4] has as its target T1, Rac GTPase-activating protein 1 (Homo sapiens, UniProt Q9H0H5).
T1 sequence (Q9H0H5 whole entry): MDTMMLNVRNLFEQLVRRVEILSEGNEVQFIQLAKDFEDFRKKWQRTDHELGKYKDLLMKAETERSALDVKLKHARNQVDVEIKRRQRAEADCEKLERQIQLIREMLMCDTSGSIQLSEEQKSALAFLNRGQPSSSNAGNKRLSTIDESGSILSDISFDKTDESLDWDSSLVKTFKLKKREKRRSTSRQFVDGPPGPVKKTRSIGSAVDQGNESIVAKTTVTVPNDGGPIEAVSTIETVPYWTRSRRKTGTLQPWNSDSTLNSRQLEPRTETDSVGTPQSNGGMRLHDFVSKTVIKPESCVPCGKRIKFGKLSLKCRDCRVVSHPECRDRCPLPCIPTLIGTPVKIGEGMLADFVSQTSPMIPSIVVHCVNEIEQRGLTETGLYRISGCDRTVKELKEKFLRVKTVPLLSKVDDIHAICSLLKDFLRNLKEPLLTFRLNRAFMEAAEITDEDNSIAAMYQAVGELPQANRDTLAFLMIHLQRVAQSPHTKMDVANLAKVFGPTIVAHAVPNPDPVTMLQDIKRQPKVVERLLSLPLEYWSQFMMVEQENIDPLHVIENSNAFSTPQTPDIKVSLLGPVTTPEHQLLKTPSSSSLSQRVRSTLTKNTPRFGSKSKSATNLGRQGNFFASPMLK
The experiment in a line: MgcRacGAP GTPase-activating activity inhibitors, confirmation, biochemical, ADP Hunter fluorescence, primary and confirmatory (AID 624330). In kind it is functional.

The target of data set [5] is Cytochrome P450 2C9 (Homo sapiens, UniProt P11712).
In data set [6] the target is Cytochrome P450 2C19 (Homo sapiens, UniProt P33261). Kind of data set: Cytochrome panel assay with activity outcomes. Panel member name: p450-cyp2c19 Compounds with AC50 equal or less than 10 uM are considered active. Type of data set: functional.
Data set [7] in a line: C. albicans growth with fluconazole, confirmation, fluorescence, retest (AID 2467). In kind it is functional, cell-based.
A short description of data set [8]: NIH-3T3 fibroblast cytotoxicity, dose response, cytotoxicity control, cell-based, fluorescence, Alamar Blue, secondary assay (AID 2327).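 Note: NIH-3T3 mouse fibroblasts cultured with fluconazole at 8 µg/mL.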 In kind it is functional. Background: Alamar Blue is a resazurin reagent that responds to reducing activity.
In data set [9] the target is T2, Cytochrome P450 1A2 (Homo sapiens, UniProt P05177).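 Note: PubChem cytochrome P450 panel assay, CYP1A2 panel member.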
T2 sequence (P05177 whole entry): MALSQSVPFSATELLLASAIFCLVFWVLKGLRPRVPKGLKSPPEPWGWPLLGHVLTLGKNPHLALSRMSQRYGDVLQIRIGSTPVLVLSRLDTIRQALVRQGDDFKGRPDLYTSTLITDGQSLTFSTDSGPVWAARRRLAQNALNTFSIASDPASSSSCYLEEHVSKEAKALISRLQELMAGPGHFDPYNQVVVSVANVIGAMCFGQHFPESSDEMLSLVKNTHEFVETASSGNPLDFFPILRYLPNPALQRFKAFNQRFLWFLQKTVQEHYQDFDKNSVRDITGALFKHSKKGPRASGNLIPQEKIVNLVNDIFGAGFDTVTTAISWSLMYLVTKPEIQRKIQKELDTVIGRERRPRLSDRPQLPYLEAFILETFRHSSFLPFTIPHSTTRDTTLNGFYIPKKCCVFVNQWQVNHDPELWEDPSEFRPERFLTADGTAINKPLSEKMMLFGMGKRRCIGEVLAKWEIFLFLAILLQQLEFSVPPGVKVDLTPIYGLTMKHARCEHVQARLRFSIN

The nature of data set [10]: cells. Type of data set: functional.
Data set [11] has as its target Cytochrome P450 3A4 (Homo sapiens, UniProt P08684).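 Note: CYP3A4 tested as one member of a cytochrome P450 panel screen.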
Data set [12] can be described thus: Luminescence Cell-Based Dose Retest to Confirm Inhibitors of Cancer Stem Cells. [Related pubchem assays (depositor defined):AID2717, AID2721]. The following applies: Homo sapiens. In kind it is functional.

Cytochrome P450 2C19, sequence (P33261 whole entry): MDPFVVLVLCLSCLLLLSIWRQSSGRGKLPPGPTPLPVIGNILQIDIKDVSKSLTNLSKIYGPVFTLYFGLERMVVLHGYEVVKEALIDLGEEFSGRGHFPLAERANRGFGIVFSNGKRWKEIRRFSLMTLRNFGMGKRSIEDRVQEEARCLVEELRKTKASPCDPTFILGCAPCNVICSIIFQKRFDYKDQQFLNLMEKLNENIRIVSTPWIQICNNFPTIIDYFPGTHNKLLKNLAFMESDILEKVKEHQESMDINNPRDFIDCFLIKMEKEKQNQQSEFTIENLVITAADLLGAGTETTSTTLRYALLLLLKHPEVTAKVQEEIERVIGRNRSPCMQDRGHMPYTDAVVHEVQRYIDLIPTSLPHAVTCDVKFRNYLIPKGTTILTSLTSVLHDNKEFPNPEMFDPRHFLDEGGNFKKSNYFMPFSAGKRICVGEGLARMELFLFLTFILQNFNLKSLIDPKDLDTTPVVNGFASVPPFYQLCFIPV
Cytochrome P450 2C9, sequence (P11712 whole entry): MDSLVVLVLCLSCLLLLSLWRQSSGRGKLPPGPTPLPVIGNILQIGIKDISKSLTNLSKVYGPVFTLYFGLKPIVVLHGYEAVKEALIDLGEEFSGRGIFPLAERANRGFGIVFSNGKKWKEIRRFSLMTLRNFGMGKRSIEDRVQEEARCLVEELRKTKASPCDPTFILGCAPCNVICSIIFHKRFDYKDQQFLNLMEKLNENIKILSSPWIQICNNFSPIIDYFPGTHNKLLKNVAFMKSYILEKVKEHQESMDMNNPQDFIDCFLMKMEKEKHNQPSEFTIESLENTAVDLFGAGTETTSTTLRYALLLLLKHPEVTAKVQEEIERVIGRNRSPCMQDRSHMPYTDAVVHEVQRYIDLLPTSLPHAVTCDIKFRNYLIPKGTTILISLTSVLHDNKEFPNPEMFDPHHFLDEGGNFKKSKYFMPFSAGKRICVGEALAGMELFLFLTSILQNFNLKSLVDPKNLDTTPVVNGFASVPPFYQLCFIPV
Cytochrome P450 3A4, sequence (P08684 whole entry): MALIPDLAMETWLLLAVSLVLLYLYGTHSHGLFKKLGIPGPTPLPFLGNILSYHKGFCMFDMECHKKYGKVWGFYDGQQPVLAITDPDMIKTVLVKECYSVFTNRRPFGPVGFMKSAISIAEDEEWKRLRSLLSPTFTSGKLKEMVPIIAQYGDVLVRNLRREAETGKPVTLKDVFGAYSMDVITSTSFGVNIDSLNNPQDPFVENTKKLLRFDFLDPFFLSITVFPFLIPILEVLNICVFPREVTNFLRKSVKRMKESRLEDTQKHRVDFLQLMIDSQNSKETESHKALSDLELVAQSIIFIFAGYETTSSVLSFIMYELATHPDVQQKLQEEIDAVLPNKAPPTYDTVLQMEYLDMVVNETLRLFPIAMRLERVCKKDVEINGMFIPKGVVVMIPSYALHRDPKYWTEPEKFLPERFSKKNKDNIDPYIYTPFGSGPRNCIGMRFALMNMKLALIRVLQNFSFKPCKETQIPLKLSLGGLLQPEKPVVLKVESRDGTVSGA

As for `Cc1cccc2cc(C#N)c(SCc3nnc(-c4ccccc4[N+](=O)[O-])o3)nc12`, the results for the EC50 in [1], in [2] and in data set [3] were > 120 µM (not active), 18.4 µM (active) and 75.4 µM (active), respectively.

For `COC(=O)c1cc(NCc2cccs2)ccc1N1CCOCC1`, in [4], the IC50 was 135 µM (active).

`CCN1C(=O)C2(SC(NC(C)=O)=NN2C(C)=O)c2cc(C)ccc21` (configuration not stated): the figures for the AC50 in [5] and in [6] (read-out: AC50) were 31.6 µM (inconclusive) and 14.1 µM (inconclusive), respectively.

`Cc1cccc(/C=N/c2ccc3c4c(cccc24)CC3)c1O`: the half-inhibitory concentration (IC50) in data set [4] is 20 µM (active).

Regarding `O=C(c1cc(-c2cccc(Cl)c2)on1)N1CCOCC1`, the EC50 is 4.22 µM (active) in data set [1], 21.1 µM (active) in [2] and 26.4 µM (active) in data set [3].

In the case of `C/C(=N\N1C(=O)CSC1=S)c1ccc(Br)cc1`, the EC50 in data set [7] was > 38 µM (not active); in [8], > 160 µM (inactive).

For `O=c1c(CCc2ccccc2)nc2cnc(N3CCOCC3)nc2n1CCc1ccccc1`, the concentration at half-maximal activity (AC50) was 2 µM (inconclusive) in [5] and 25.1 µM (inconclusive) in [9].

Take `O=[N+]([O-])c1ccc(N2CCN(Cc3ccc([N+](=O)[O-])o3)CC2)cc1`: the half-maximal inhibitory concentration (IC50) in [10] is < 0.1 µM (active). Moreover, the values for the EC50 in data set [7] and in data set [8] were > 38 µM (not active) and > 150 µM (inactive), respectively.

Take `N=c1n(CCN2CCOCC2)c2ccccc2n1CC(=O)c1ccc(Cl)c(Cl)c1`: the values for the EC50 in data set [1], in [2] and in [3] were > 120 µM (not active), 41.8 µM (inconclusive) and > 120 µM (not active), respectively.

For the compound `COc1ccccc1C(OC(=O)c1cccs1)C(=O)NCC1CCCO1` (configuration not stated), the concentration at half-maximal activity (AC50) in [5] was 14.1 µM (inconclusive); in data set [6] (read-out: AC50) it was 5.01 µM (inconclusive); in [9], 14.1 µM (inconclusive); in data set [11], 25.1 µM (inconclusive).

Consider `O=C1c2ccccc2C(Cc2ccncc2)(Cc2ccncc2)c2ccccc21`, for which the half-maximal activity concentration (AC50) was 20 µM (inconclusive) in data set [5] and 39.8 µM (inconclusive) in data set [9].

Take `COc1cccc(/C=N/NC(=O)CCn2nnc3ccccc32)c1`: the concentration for a half-maximal effect (EC50) in [1], in [2] and in data set [3] was > 120 µM (not active) throughout.

In the case of `Nc1cc(Cc2ccccc2)ccc1O`, in data set [4], the IC50 is 18 µM (active).

Regarding `Oc1ccc(NCc2ccc(OCc3ccccc3)cc2)cc1`, the half-maximal inhibitory concentration (IC50) in [4] was 60.5 µM (active).

With `O=C(Cn1c2ccc(F)cc2c2nc3n(c(=O)c21)CCS3)N1CCCC1`, the EC50 is 0.66 µM (active) in data set [7] and > 160 µM (inactive) in data set [8].

As for `COC(=O)/C(=N\Nc1ccc(Cl)cc1)Sc1nnc(-c2ccc(OC)cc2)n1C`, the concentration giving a half-maximal response (EC50) was > 38 µM (not active) in data set [7] and > 160 µM (inactive) in [8].

`CC(C)[C@@H]1O[C@H](/C=C\c2ccccc2)OCC1(C)C`: the values for the half-maximal activity concentration (AC50) in data set [5], in [6] (read-out: AC50) and in data set [11] were 3.16 µM (inconclusive), 5.01 µM (inconclusive) and 5.01 µM (inconclusive), respectively.

Regarding `O=C(CN1C(=O)S/C(=C\C=C\c2ccccc2)C1=O)Nc1cccc(O)c1`, the concentration for a half-maximal effect (EC50) in data set [1] was 16.4 µM (active); in data set [2], 49.2 µM (active); in [3] it was 40.1 µM (active).

With `CCCCc1cc(=O)oc2cc(OCC(=O)N(CC)CC)ccc12`, the AC50 is 25.1 µM (inconclusive) in [5] and 31.6 µM (inconclusive) in [6] (read-out: AC50).

As to `Cc1ccc(C(=O)NC(=S)Nc2cccc3nsnc23)cc1`, the concentration at half-maximal activity (AC50) in data set [5] was 35.5 µM (inconclusive); in data set [6], “inconclusive”.

Take `COc1cc(/C=C/C(=O)OCC(=O)c2ccc(OC(F)F)cc2)ccc1O`: in data set [4], the IC50 was 64 µM (active).

For `O=c1c(-c2ccccc2)nc2cnc(N3CCOCC3)nc2n1Cc1ccc(F)cc1`, the figures for the AC50 in [5] and in data set [9] were 15.8 µM (inconclusive) and 20 µM (inconclusive), respectively.

Consider `Cc1ccc(NC(=O)CCNCc2ccco2)cc1S(=O)(=O)N(C)C`, for which the IC50 in data set [4] was 229 µM (active).

On to `O=C(Nc1nnc(-c2ccccn2)o1)c1ccc(Br)cc1`, for which the EC50 in data set [7] was > 38 µM (not active); in data set [8] it was 18.3 µM (inconclusive).

Turning to `COC(=O)C1C(=O)C=C(Nc2ccc(F)cc2F)CC1c1ccccc1` (configuration not stated), the half-maximal effective concentration (EC50) is > 120 µM (not active) in [1], 17.6 µM (active) in [2] and 95.6 µM (active) in data set [3].

With `Cc1ccc(C(C)(C)NC(=O)C2CCC(=O)N(C3CCCCCC3)C2)cc1` (configuration not stated), the EC50 was 83.3 µM (active) in data set [1], > 120 µM (not active) in data set [2] and 10.2 µM (active) in data set [3].

As for `Cc1cc(C)c(C)c(S(=O)(=O)N2CCN(c3ccc(O)cc3)CC2)c1C`, the AC50 in data set [12] was 8.83 µM (active). In addition, the IC50 in data set [4] is 85.9 µM (active).

`Cc1ccc(-c2cc(C(=O)N3CCCc4ccccc43)no2)cc1`: the EC50 is 52.4 µM (active) in data set [1], 11.8 µM (active) in data set [2] and > 120 µM (not active) in data set [3].
